US20240424019A1, “SHP1 MODIFIED DENDRITIC CELLS AND EXTRACELLULAR VESICLES DERIVED THEREFROM AND ASSOCIATED METHODS” (BOARD OF REGENTS, THE UNIVERSITY OF TEXAS SYSTEM, priority 2021, published 2024)

Key:
HY19636 KPC tumor = assay: Orthotopic HY19636 KPC PDAC tumor model; format: in vivo, mouse
Procedure: FIG. 6E: Measurement of maximal tumor diameter in HY1936 KPC tumor-bearing mice treated with gemcitabine (GEM, 25 mg/kg by i.p.) and ICT (anti-PDI/anti-CTLA4) along with vehicle or VitE (n=5). FIG. 6F: Kaplan-Meier survival curve of HY19636 KPC tumor-bearing mice treated with vehicle, GEM (gemcitabine, 25 mg/kg by i.p.), GEM+ICT (anti-PDI/anti-CTLA4) plus vehicle or VitE (n=6).
Syngeneic orthotopic PDAC tumors were established by surgical implantation. Briefly, 2,000 HY19636 KPC cells in 50 μl PBS were injected into each pancreas of the C57BL/6J mouse.
Treatments were given as single agents or in combinations with the indicated regimens for each group. VitE (D-α-Tocopherol type VI, Cat.T1539, Sigma-Aldrich) was formulated in the vehicle (10% ethanol in sterile water) and administered by oral gavage once a day at a dose of 50 mg/kg body weight (100 μl at 10 mg/ml per day), corresponding to 400 to 600 mg/day in a human weighing 60 kg, which is within the range of doses recommended for supplement and pharmacological use. VitE treatment was initiated on day 4 ending until the ending point.
For chemo combination treatment, HY19636 KPC tumor-bearing mice were treated with gemcitabine (GEM) at 25 mg/kg body weight by i.p. injection once a week from day 7 and 4T1 TNBC tumor-bearing mice were given with doxorubicin (Dox, 5 mg/kg body weight) by i.v. once a week from day 10. The chemotherapeutic doses and schedules used in this study are below or within the range of the concentrations used in the clinic after converting drug doses between species.

human IFN-γ+CD8+ T cells = assay: Coculture of human MoDCs with autologous T cells; format: cell-based; conditions: VitE-treated vs vehicle-treated autologous MoDCs
Procedure: FIG. 2A: Percentage of human IFN-γ^+CD8^+ T cells in CD8^+ T cells in coculture with vehicle or VitE-treated autologous MoDCs (n=3). FIG. 2B: Representative flow cytometric analysis and quantification of antigen-specific OT-1 T cell proliferation stimulated with OVA-loaded mouse BMDCs that were treated with vehicle or VitE at day 3. FIG. 2C: Tumor growth curves of orthotopic EMT6 tumor-bearing mice treated with vehicle (Ctrl), Vitamin E (VitE), or VitE plus Cyt c (10 mg/kg. i.v, every other day starting on day 3) to deplete DCs (n=8/group). The statistical significance is defined by P-value: *P<0.05, **P<0.01, ***P<0.001. ****P<0.0001. Human leukocyte concentrate (buffy coat) was collected from healthy blood donor volunteers by MD Anderson Blood Donor Center. Written informed consent was obtained from all participating blood donors and the use of anonymized leftover specimens for scientific purposes was approved by the Ethics Committee of the MD Anderson Cancer Center. For the generation of monocyte-derived dendritic cells (MoDCs), peripheral blood of healthy individuals was applied to a Ficoll gradient (BD), and mononuclear cells were freshly isolated and cultured in the dish in a humidified incubator for 1 hour to let monocytes adhere. After removing the medium with non-adherent cells, the adherent monocytes were collected through vigorous pipetting. […]

human iPSC-DCs = assay: Activation of human iPSC-derived DCs by flow cytometry; format: cell-based; conditions: vitamin E 50 μg/ml or TPI-1 1 μg/ml, 72 h, gated on CD11c+
Excerpt: FIG. 10A: Representative high magnification photomicrographs (100×, 200×, 400×) illustrating the morphology of colonies and individual cells of fully differentiated iPSC-derived DCs (iPSC-DCs) displaying characteristic DC morphology consisting of protrusions and veils of cytoplasm at the end of the differentiation procedure (day 23) after using the differentiation protocol for the addition and withdrawal of growth factors and cytokines. FIG. 10B: Phenotypic characterization of generated human iPSC-DCs. Representative flow cytometry analysis depicting the expression of DC lineage markers by iPSC-DCs gated on the CD11c+ population. Levels of expression of individual markers are shown as red histograms, while non-specific staining by isotype controls is shown as light blue histograms. FIG. 10C: Phenotypic characterization of human iPSC-DCs after treatment with vitamin E or TPI-1 to inhibit SHP1. Representative flow cytometry analysis (left panel) and quantification (right panel) depicting the expression of indicated activity markers by iPSC-DCs gated on the CD11c+population with the treatment of vehicle, vitamin E (50 μg/ml) or TPI-1 (1 μg/ml) for 72 h.
We explored the feasibility of differentiating populations of primary DCs from iPSCs and characterized the phenotype of iPSC-DC with the pharmacological inhibition of SHP1 by vitamin E or TPI-1. […]

[1] = VitE added to GEM+ICT vs GEM+ICT+vehicle

Cc1c(C)c2c(c(C)c1O)CC[C@@](C)(CCC[C@H](C)CCC[C@H](C)CCCC(C)C)O2 [VitE, D-α-Tocopherol]
survival time (HY19636 KPC tumor; [1]): prolonged the survival time | tumor growth (HY19636 KPC tumor; [1]): effectively inhibited the HY19636KPC PDAC tumor growth | ascites (HY19636 KPC tumor; VitE added to GEM+ICT, day 25): reduced tumor-induced ascites | IFNγ+CD8+ T cells in coculture (human IFN-γ+CD8+ T cells): increased autologous IFNγ+CD8+ cytotoxic T cells | expression of DC activation markers on iPSC-DCs (human iPSC-DCs): increased expression of DC activation markers CD40 and CD86
